{"source": "paper PMC9308932", "about": "“Human liver microsomes study on the inhibitory effect of plantainoside D on the activity of cytochrome P450 activity” (BMC Complementary Medicine and Therapies, 2022)", "format_in_all_cases": "in vitro ADME", "key": {"CYP2C9": {"biological_target": "T1, CYP2C9 (Homo sapiens, UniProt P11712)", "T1 construct": "Pooled human liver microsomes were obtained from BD Biosciences Discovery Labware; tissue BD Biosciences Discovery Labware; host or cells: pooled human liver microsomes", "T1 sequence (P11712 whole entry)": "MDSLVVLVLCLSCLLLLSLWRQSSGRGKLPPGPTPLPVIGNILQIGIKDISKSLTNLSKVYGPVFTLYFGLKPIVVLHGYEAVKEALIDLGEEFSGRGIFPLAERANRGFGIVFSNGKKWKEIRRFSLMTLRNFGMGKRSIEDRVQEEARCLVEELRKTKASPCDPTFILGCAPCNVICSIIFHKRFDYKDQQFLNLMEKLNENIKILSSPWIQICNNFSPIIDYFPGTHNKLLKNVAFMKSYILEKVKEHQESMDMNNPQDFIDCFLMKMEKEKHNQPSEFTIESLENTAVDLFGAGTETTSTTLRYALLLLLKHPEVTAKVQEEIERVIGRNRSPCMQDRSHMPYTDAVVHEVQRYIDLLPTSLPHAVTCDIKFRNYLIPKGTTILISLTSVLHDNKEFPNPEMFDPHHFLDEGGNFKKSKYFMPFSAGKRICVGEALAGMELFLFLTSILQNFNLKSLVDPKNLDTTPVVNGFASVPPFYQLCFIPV", "assay": "CYP2C9 activity (diclofenac 4'-hydroxylation) in human liver microsomes", "conditions": "0-100 μM plantainoside D", "experimental": "(§1) The activity of P450s was evaluated by corresponding metabolites using HPLC with Agilent 1260 Series Rapid Resolution HPLC. The reaction system was prepared with the following compositions: HLMs with certain protein concentrations, specific substrates of different isoenzymes, PBS buffer solution, plantainoside D or specific inhibitors, and an NADPH generating system as previously reported. Besides dextromethorphan and quinidine were dissolved in water, other substrated, inhibitors, and plantainoside D were dissolved in methanol with a final concentration of 1% (v/v). Before initiating the reaction, there was a preincubation of 3 min followed by the addition of the NADPH-generating system. [table] [table] […] Furthermore, the inhibition model of P450 isoenzymes was estimated in the presence of various concentrations of corresponding substrates and fitting with Lineweaver–Burk and Dixon plots, and the inhibition constant was calculated by the following equations: […]"}, "CYP2C8": {"biological_target": "T2, CYP2C8 (Homo sapiens, UniProt P10632)", "T2 construct": "Pooled human liver microsomes were obtained from BD Biosciences Discovery Labware; tissue BD Biosciences Discovery Labware; host or cells: pooled human liver microsomes", "T2 sequence (P10632 1-490)": "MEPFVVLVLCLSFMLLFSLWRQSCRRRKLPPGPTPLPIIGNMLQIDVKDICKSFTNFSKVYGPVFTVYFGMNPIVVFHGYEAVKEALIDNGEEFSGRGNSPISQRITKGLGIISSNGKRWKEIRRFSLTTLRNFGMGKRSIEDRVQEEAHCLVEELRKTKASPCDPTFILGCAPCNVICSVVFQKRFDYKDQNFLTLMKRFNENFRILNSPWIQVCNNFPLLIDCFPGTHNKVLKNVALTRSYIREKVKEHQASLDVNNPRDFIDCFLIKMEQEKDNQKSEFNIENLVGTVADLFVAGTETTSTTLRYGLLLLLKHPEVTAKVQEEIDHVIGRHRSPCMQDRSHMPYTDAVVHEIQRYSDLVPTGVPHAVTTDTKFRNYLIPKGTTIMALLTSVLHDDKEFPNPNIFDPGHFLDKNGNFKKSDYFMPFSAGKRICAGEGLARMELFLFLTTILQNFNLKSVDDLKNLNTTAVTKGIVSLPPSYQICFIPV", "assay": "CYP2C8 activity (paclitaxel 6α-hydroxylation) in human liver microsomes", "conditions": "0-100 μM plantainoside D", "experimental": "as §1"}, "CYP2D6 [1]": {"biological_target": "T3, CYP2D6 (Homo sapiens, UniProt P10635)", "T3 construct": "Pooled human liver microsomes were obtained from BD Biosciences Discovery Labware; tissue BD Biosciences Discovery Labware; host or cells: pooled human liver microsomes", "T3 sequence (P10635 whole entry)": "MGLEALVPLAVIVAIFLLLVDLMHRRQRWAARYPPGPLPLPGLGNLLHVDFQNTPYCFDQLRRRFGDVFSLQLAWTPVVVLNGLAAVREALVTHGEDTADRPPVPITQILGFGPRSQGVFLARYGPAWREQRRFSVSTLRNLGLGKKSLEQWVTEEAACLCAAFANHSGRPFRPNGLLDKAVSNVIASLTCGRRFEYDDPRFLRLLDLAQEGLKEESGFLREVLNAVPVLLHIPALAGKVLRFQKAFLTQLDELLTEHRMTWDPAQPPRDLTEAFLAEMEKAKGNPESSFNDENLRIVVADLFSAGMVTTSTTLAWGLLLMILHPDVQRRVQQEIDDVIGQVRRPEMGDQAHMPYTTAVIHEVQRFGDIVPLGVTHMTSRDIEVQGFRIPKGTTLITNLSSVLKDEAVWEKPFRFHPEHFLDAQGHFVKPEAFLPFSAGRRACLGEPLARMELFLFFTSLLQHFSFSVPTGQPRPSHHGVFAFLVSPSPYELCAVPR", "assay": "Time-dependent inhibition of CYP2D6 in human liver microsomes", "conditions": "20 μM plantainoside D; incubation 0-30 min; 1 mg/mL HLMs", "experimental": "(§2) A total of 1 mg/mL HLMs were firstly incubated with 20 μM plantainoside D and the NADPH-generating system for 30 min. Then, incubation with 20 μL aliquot was carried out for 0, 5, 10, 15, and 30 min in the presence of substrates concentration close to Km."}, "CYP2C19": {"biological_target": "T4, CYP2C19 (Homo sapiens, UniProt P33261)", "T4 construct": "Pooled human liver microsomes were obtained from BD Biosciences Discovery Labware; tissue BD Biosciences Discovery Labware; host or cells: pooled human liver microsomes", "T4 sequence (P33261 whole entry)": "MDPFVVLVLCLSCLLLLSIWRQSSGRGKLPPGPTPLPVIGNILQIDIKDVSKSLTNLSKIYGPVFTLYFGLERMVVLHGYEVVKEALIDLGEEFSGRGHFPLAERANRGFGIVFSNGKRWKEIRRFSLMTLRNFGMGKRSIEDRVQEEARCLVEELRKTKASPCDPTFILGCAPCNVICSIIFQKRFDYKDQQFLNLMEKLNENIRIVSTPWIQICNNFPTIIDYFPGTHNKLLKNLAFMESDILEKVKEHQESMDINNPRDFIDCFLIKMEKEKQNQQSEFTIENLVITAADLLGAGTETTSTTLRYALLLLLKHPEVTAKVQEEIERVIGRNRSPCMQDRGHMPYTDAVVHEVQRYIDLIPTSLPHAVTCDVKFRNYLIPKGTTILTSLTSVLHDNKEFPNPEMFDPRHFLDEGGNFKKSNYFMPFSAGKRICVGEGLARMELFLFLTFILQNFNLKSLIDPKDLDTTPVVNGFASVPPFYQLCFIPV", "assay": "CYP2C19 activity (S-mephenytoin 4-hydroxylation) in human liver microsomes", "conditions": "0-100 μM plantainoside D", "experimental": "as §1"}, "CYP2D6 [2]": {"biological_target": "T3, CYP2D6", "assay": "Concentration-dependent inhibition of CYP2D6 (dextromethorphan O-demethylation) in human liver microsomes", "experimental": "(§3) The activity of P450s was evaluated by corresponding metabolites using HPLC with Agilent 1260 Series Rapid Resolution HPLC. The reaction system was prepared with the following compositions: HLMs with certain protein concentrations, specific substrates of different isoenzymes, PBS buffer solution, plantainoside D or specific inhibitors, and an NADPH generating system as previously reported. Besides dextromethorphan and quinidine were dissolved in water, other substrated, inhibitors, and plantainoside D were dissolved in methanol with a final concentration of 1% (v/v). Before initiating the reaction, there was a preincubation of 3 min followed by the addition of the NADPH-generating system.\n(§4) The effect of plantainoside D was primarily evaluated with the concentration of 0, 2.5, 5, 10, 25, 50, and 100 μM and the values of IC50 was evaluated. Furthermore, the inhibition model of P450 isoenzymes was estimated in the presence of various concentrations of corresponding substrates and fitting with Lineweaver–Burk and Dixon plots, and the inhibition constant was calculated by the following equations:\n(§5) v=VmaxS/Km1+I/Ki+S for competitive inhibition;\n(§6) v=(VmaxS)/[Km+S(1+I/KiKI)] for non-competitive inhibition.\n(§7) where I is the concentration of plantainoside D, Ki is the inhibition constant, S is the concentration of the substrate, and Km is the substrate concentration at half the maximum velocity (Vmax) of the reaction."}, "CYP2E1": {"biological_target": "T5, CYP2E1 (Homo sapiens, UniProt P05181)", "T5 construct": "Pooled human liver microsomes were obtained from BD Biosciences Discovery Labware; tissue BD Biosciences Discovery Labware; host or cells: pooled human liver microsomes", "T5 sequence (P05181 whole entry)": "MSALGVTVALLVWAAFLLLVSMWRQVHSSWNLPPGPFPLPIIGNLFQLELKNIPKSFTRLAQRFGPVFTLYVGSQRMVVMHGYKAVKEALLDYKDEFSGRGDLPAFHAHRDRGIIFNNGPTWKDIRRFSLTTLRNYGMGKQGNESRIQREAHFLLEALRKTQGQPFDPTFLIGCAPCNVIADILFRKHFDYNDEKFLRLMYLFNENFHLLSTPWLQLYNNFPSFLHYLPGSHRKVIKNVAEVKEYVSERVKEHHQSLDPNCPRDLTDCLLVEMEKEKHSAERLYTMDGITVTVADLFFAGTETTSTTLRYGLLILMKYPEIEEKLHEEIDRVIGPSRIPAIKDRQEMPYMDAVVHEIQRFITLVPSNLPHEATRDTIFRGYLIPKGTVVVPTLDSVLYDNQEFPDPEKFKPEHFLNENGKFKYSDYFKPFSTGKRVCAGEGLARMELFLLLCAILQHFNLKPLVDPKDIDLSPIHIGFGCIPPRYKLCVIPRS", "assay": "CYP2E1 activity (chlorzoxazone 6-hydroxylation) in human liver microsomes", "conditions": "0-100 μM plantainoside D", "experimental": "as §1"}, "CYP3A [3]": {"biological_target": "T6, CYP3A (Homo sapiens, UniProt P08684)", "T6 sequence (P08684 2-503)": "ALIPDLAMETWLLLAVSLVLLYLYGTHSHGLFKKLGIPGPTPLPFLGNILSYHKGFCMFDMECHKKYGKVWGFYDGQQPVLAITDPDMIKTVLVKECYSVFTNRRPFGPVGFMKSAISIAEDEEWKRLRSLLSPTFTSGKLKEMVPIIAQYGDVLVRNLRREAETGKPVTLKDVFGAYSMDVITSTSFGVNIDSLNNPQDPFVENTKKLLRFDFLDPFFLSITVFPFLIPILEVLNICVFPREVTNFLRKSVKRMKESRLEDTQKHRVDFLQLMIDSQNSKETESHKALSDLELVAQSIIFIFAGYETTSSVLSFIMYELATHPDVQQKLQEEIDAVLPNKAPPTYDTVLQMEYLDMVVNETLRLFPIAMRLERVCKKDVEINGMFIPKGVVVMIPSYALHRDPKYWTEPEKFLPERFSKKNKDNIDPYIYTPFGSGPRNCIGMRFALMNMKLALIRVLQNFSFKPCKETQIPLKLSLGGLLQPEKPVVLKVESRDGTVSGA", "assay": "Time-dependent inhibition of CYP3A in human liver microsomes", "experimental": "as §2, with “Km. Additionally, the values of KI and Kinact were evaluated in the presence of substrates approximate to fourfold Km according to the equation: 1/Kobs=KI/Kinact×1/[I]+1/Kinact .” for “Km.”"}, "CYP1A2 [4]": {"biological_target": "T7, CYP1A2 (Homo sapiens, UniProt P05177)", "T7 construct": "Pooled human liver microsomes were obtained from BD Biosciences Discovery Labware; tissue BD Biosciences Discovery Labware; host or cells: pooled human liver microsomes", "T7 sequence (P05177 1-516)": "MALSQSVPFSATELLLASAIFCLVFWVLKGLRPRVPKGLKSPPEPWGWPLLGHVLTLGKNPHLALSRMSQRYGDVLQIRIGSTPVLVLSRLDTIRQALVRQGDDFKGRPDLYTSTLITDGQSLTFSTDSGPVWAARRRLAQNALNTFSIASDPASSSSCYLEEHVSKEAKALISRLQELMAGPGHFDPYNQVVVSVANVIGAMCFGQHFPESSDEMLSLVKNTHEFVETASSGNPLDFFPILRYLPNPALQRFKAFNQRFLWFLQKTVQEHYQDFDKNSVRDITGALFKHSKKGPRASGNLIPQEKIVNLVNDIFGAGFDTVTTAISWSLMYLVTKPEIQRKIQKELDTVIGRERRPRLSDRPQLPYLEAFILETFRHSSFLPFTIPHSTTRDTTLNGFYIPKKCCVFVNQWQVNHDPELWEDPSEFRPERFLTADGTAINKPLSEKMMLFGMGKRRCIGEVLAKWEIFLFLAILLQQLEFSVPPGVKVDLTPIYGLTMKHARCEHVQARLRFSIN", "assay": "Concentration-dependent inhibition of CYP1A2 (phenacetin O-deethylation) in human liver microsomes", "experimental": "as §3, §4, §5, §6, §7"}, "CYP3A [5]": {"biological_target": "T6, CYP3A", "assay": "Concentration-dependent inhibition of CYP3A (testosterone 6β-hydroxylation) in human liver microsomes", "experimental": "as §3, §4, §5, §6, §7"}, "CYP2A6": {"biological_target": "T8, CYP2A6 (Homo sapiens, UniProt P11509)", "T8 construct": "Pooled human liver microsomes were obtained from BD Biosciences Discovery Labware; tissue BD Biosciences Discovery Labware; host or cells: pooled human liver microsomes", "T8 sequence (P11509 1-494)": "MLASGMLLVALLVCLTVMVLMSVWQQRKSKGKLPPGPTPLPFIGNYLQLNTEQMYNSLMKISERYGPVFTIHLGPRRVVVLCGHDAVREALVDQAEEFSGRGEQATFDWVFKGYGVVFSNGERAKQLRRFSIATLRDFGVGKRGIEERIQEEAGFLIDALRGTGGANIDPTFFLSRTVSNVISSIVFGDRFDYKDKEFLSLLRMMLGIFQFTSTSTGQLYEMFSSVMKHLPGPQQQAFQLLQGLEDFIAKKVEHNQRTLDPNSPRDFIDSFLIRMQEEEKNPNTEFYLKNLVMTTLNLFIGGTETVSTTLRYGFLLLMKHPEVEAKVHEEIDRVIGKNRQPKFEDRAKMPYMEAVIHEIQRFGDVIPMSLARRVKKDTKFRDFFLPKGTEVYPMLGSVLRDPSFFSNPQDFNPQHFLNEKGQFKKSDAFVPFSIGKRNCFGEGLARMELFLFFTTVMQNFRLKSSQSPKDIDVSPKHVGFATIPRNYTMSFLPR", "assay": "CYP2A6 activity (coumarin 7-hydroxylation) in human liver microsomes", "conditions": "0-100 μM plantainoside D", "experimental": "as §1"}, "CYP2B6": {"biological_target": "T9, CYP2B6 (Homo sapiens, UniProt P20813)", "T9 construct": "Pooled human liver microsomes were obtained from BD Biosciences Discovery Labware; tissue BD Biosciences Discovery Labware; host or cells: pooled human liver microsomes", "T9 sequence (P20813 1-491)": "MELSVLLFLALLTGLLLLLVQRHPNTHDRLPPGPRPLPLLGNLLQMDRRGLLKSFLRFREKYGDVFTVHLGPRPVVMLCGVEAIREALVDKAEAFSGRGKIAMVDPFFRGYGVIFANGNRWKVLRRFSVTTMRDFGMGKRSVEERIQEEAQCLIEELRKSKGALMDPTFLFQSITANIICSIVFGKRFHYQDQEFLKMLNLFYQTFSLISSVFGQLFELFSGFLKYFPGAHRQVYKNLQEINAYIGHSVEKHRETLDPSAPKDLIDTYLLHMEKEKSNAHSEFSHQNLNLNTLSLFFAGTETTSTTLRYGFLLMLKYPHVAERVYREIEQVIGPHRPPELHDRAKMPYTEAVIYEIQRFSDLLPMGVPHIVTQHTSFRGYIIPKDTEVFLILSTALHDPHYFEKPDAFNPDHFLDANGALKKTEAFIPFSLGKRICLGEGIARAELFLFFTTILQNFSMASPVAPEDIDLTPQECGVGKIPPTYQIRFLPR", "assay": "CYP2B6 activity (bupropion hydroxylation) in human liver microsomes", "conditions": "0-100 μM plantainoside D", "experimental": "as §1"}, "CYP1A2 [6]": {"biological_target": "T7, CYP1A2", "assay": "Time-dependent inhibition of CYP1A2 in human liver microsomes", "conditions": "20 μM plantainoside D; incubation 0-30 min; 1 mg/mL HLMs", "experimental": "as §2"}, "[7]": {"conditions": "Lineweaver-Burk plot, constant Vmax"}, "[8]": {"conditions": "competitive model, Dixon plot, human liver microsomes"}, "[9]": {"conditions": "human, human liver microsomes, probe testosterone (6β-hydroxylation)"}}, "data": [{"smiles": "O=C(/C=C/c1ccc(O)c(O)c1)OC[C@H]1O[C@@H](OCCc2ccc(O)c(O)c2)[C@H](O)[C@@H](O[C@@H]2O[C@H](CO)[C@@H](O)[C@H](O)[C@H]2O)[C@@H]1O", "note": "[plantainoside D, Plantainoside D]", "values": [{"measurement": "Effect on CYP2C9 activity", "setting": "CYP2C9", "value": "no changes"}, {"measurement": "Effect on CYP2C8 activity", "setting": "CYP2C8", "value": "no changes"}, {"measurement": "Time dependence of CYP2D6 inhibition", "setting": "CYP2D6 [1]", "value": "no significant changes with time"}, {"measurement": "Effect on CYP2C19 activity", "setting": "CYP2C19", "value": "no changes"}, {"measurement": "Inhibition model of CYP2D6", "setting": "CYP2D6 [2]; [7]", "value": "competitive"}, {"measurement": "Ki", "setting": "CYP2D6 [2]; [8]", "value": 4.54, "unit": "µM"}, {"measurement": "IC50", "setting": "CYP2D6 [2]; human liver microsomes, 0-100 μM plantainoside D, dextromethorphan substrate", "value": 8.39, "unit": "µM"}, {"measurement": "Effect on CYP2E1 activity", "setting": "CYP2E1", "value": "no changes"}, {"measurement": "Time dependence of CYP3A inhibition", "setting": "CYP3A [3]; 20 μM plantainoside D, incubation 0-30 min, 1 mg/mL HLMs", "value": "enhanced with the increasing incubation time"}, {"measurement": "kinact", "setting": "CYP3A [3]; human liver microsomes, 0, 2, 5, 10, 20, 50 μM plantainoside D, substrate about fourfold Km", "value": 0.00065, "unit": "s⁻¹"}, {"measurement": "Inhibition model of CYP1A2", "setting": "CYP1A2 [4]; [7]", "value": "competitive"}, {"measurement": "Ki", "setting": "CYP1A2 [4]; [8]", "value": 6.26, "unit": "µM"}, {"measurement": "IC50", "setting": "CYP1A2 [4]; human liver microsomes, 0-100 μM plantainoside D, phenacetin substrate", "value": 12.8, "unit": "µM"}, {"measurement": "Inhibition model of CYP3A", "setting": "CYP3A [5]; Lineweaver-Burk plot, constant Km", "value": "non-competitive"}, {"measurement": "IC50", "setting": "CYP3A [5]; [9]", "value": 14.7, "unit": "µM"}, {"measurement": "Ki", "setting": "CYP3A [5]; [9]", "value": 7.16, "unit": "µM"}, {"measurement": "Effect on CYP2A6 activity", "setting": "CYP2A6", "value": "no changes"}, {"measurement": "Effect on CYP2B6 activity", "setting": "CYP2B6", "value": "no changes"}, {"measurement": "Time dependence of CYP1A2 inhibition", "setting": "CYP1A2 [6]", "value": "no significant changes with time"}]}]}
